Each block holds one molecule with its values, some of them ahead of it.
Assays:
clot-bound thrombin = clot-bound thrombin (Homo sapiens, UniProt P00734); assay: Fibrinopeptide A (FPA) release by clot-bound thrombin; format: biochemical; details: similar dose (0.1 U/ml)
hemostasis = assay: Template bleeding time; format: in vivo, baboon
[1] = system: platelet-dependent thrombosis; details: collagen-coated silastic tubing, 160 U/kg bolus then 160 U/kg/hr infusion; cited from earlier work
APTT [2] = assay: Systemic anticoagulant effect (APTT) of antithrombotic agents; format: in vivo, baboon; details: dose not given
Source text: We also tested the effects of a variety of other agents on template bleeding time in the baboon, as well as on systemic anticoagulant effects (as measured by APTT).

soluble thrombin = biological target: T1, soluble thrombin (Homo sapiens, UniProt P00734); assay: Fibrinopeptide A (FPA) release by soluble thrombin; format: biochemical; details: 0.1 U/ml
T1 construct: We added a 270-fold excess of ^14 C-DFP to thrombin

sarcoma T241 cells = assay: Anti-metastatic activity, lung tumor colonies; format: in vivo, C57BL/6 mice; details: i.v. or s.c., 15 days
Source text: After 15 days, the animal is sacrificed and lung tumor colonies are quantitated.

HUVECs = assay: Thrombin-induced polymorphonuclear leukocyte (PMN) adhesion to HUVECs; format: cell-based, human; details: 5 μg/ml, α-thrombin 0.1 or 1 U/ml
Method: HUVECs are grown to confluence in MEM containing 1% fetal calf serum in 24-well cluster plates. The medium is then removed, the cells are washed two times with fresh, serum-free medium and incubated in the same medium for 10-30 minutes at 37° C. to remove serum products. PMNs (2.5×10^6 in 1 ml), which are pre-equilibrated at 37° C., are then added to each well. The PMNs are allowed to settle onto the HUVEC monolayer for 2 minutes. […] The cells are incubated for 5 minutes at 37° C., washed twice and then examined by phase-contrast microscopy. Adherent PMNs are counted directly.

[3] = system: platelet-dependent thrombus formation; assay: High and low shear platelet-dependent thrombus formation, dual-chamber device; format: in vivo, baboon; details: 0.05 mg/kg/min, 40 minutes
Source text: The device was comprised of a 2 cm segment of collagen-coated Gortex followed by 2 cm segments of expanded diameter. Using this device, thrombus formation was initiated by exposure of native flowing blood to a segment of the collagen-coated Gortex at high shear. This part of the experimental protocol simulated arterial-like conditions. When the blood entered the expanded diameter segments, low-shear, vortex conditions were maintained, thereby simulating venous thrombosis. In control animals, a total of 9.3±2.3×10^8 and 6.1±0.5×10^8 platelets/cm accumulated after 40 minutes in the high and low shear segments, respectively.

[4] = system: pooled, normal human plasma; assay: Activated partial thromboplastin time (APTT) assay in plasma; format: biochemical; details: 10 to 32,300 ng/ml
Source text: Hirulog-8 using pooled, normal human plasma (George King Biomedical, Overland Park, Kans.) and a Coag-A-Mate XC instrument (General Diagnostics, Organon Technica, Oklahoma City, Okla.). Activity was monitored using the activated partial thromboplastin time (APTT) assay with CaCl2 and phospholipid solutions obtained from the manufacturer.

fibrin(ogen) deposition = assay: Fibrin(ogen) deposition in AV shunt thrombi; format: in vivo, baboon; details: collagen-coated tubing, 60 minute exposure
Method: Fibrin deposition was determined by measurement of ^125 I-fibrin(ogen) 30 days after completion of the ^111 In-platelet assay described above. This allowed the ^111 In label to decay to a non-interfering level.

[5] = system: platelet-dependent thrombosis; assay: Platelet deposition on thrombogenic surfaces in exteriorized AV shunt; format: in vivo, baboon
Method: Specifically, we placed various thrombogenic surfaces in a chronic exteriorized AV shunt in the animals. These surfaces included segments of endarterectomized baboon aorta, collagen-coated silastic tubing, collagen-coated Gortex and Dacron vascular graft. Following placement in the shunt, the surfaces were exposed to native flowing blood to elicit thrombus formation. We measured the formation of thrombi over a period of 60 minutes by monitoring the deposition of platelets on the thrombogenic surface. These measurements were recorded by external gamma-camera imaging following pre-infusion of the test animal with autologous ^111 In-labeled platelets.

[6] = system: E. coli-induced septic shock; assay: E. coli-induced septicemia / disseminated intravascular coagulation; format: in vivo, baboon; details: 0.08 mg/kg/hr infusion
Source text: We induced septicemia in baboons by injection of a lethal dose of live E. coli according to the method described by F. B. Taylor et al. J. Clin. Invest., 79, pp. 918-25 (1987).

[7] = Clearance times monitored by APTT; format: in vivo, baboon
Method: APTT assays, performed as described in Example 11, were used to monitor clearance times.
APTT was measured following the 60 minute infusion and at various time intervals thereafter.
APTT measurements were taken at various time intervals following injection.

[8] = system: thrombin-induced platelet activation; assay: Thrombin-induced platelet activation in platelet-rich plasma; format: cell-based, human; details: 0-500 ng/ml, thrombin 0.2, 0.25 or 0.5 units/ml
Method: Thrombin-induced platelet activation studies are performed at 37° C. using a Biodata PAP4 Platelet Aggregometer. Platelet-rich plasma (PRP) is obtained from normal, healthy, volunteers who have not taken any medication altering platelet function for at least one week prior to study. PRP is prepared as described by J. A. Jakubowski et al., "Modification of Human Platelet by a Diet Enriched in Saturated or Polyunsaturated Fat", Atherosclerosis, 31, pp. 335-44 (1978). […] One minute later, we add human α-thrombin to the platelet suspension to a final concentration of 0.2, 0.25 or 0.5 units/ml total assay volume. Aggregation is monitored as an increase in light transmission for 5 minutes following the addition of thrombin. We then calculate % Inhibition as (% aggregationsample)/(% aggregationcontrol)×100.

APTT [9] = assay: In vivo anticoagulant activity, APTT after intravenous infusion; design: species or system baboon
Method: Whole blood from treated and control animals was removed from a catheter placed in the femoral vein and collected into 3.8% sodium citrate (9:1; blood:sodium citrate). Plasma was obtained by standard methods and the APTT was recorded by methods described in Example 10.

[10] = system: human umbilical vein endothelial cells (HUVECs); assay: Thrombin-induced synthesis of platelet activating factor (PAF); format: cell-based; details: 0-1 μg/ml, thrombin 1 U/ml
Method: The ability of the thrombin inhibitors of this invention to prevent thrombin-induced synthesis of platelet activating factor (PAF) is assayed using cultured human umbilical vein endothelial cells (HUVECs). HUVECS are extracted from human umbilical cords by collagenase digestion according to established procedures [M. A. Gimborne, Jr., "Culture of Vascular Endothelium", Prog. Hemost. Thromb., 3, pp. 1-28 (1976)]. HUVECs are grown to confluence in a 96-well microtiter plate in the presence of [^3 H]-acetate. Cells cultured in this manner produce [^3 H]-acetyl-PAF, which may be quantitated by extraction of HUVEC membrane phospholipids.
Cells are incubated for 5 minutes and the supernatant is then removed. Medium containing 0.1% gelatin, 50 mM acetic acid in methanol (2:1 v/v) is then added to the HUVECs. PAF is then extracted and quantified using conventional techniques [T. M. Mcintyre et al., "Cultured Endothelial Cells Synthesize Both Platelet-Activating Factor and Prostacyclin in Response to Histamine, Bradykinin and Adenosine Triphosphate", J. Clin. Invest., 76, pp. 271-80 (1985)]. The IC50 values are then calculated.

effect on FPA release catalyzed by clot-bound thrombin (clot-bound thrombin): no effect | Bleeding Time (hemostasis; in vivo): 10 min | inhibition of FPA release catalyzed by soluble thrombin (soluble thrombin): approximately 70%
Molecule: Heparin
platelet deposition level relative to saline-treated control [1]: about 80% | APTT (% control) (APTT [2]): 706.1 % control

Molecule: CC[C@H](C)[C@H](NC(=O)[C@H](CCC(=O)O)NC(=O)[C@H](CCC(=O)O)NC(=O)[C@H](Cc1ccccc1)NC(=O)[C@H](CC(=O)O)NC(=O)CNC(=O)[C@H](CC(N)=O)NC(=O)CNC(=O)CNC(=O)CNC(=O)CNC(=O)[C@@H]1CCCN1C(=O)[C@H](CCCNC(=N)N)NC(=O)[C@@H]1CCCN1C(=O)[C@H](N)Cc1ccccc1)C(=O)N1CCC[C@H]1C(=O)N[C@@H](CCC(=O)O)C(=O)N[C@@H](CCC(=O)O)C(=O)N[C@@H](Cc1ccc(O)cc1)C(=O)N[C@@H](CC(C)C)C(=O)O [Hirulog-8]
anti-metastatic activity (reduction in lung tumor colonies) (sarcoma T241 cells): demonstrates anti-metastatic activity | adherent PMNs versus saline (HUVECs): significantly fewer adherent PMNs | inhibition of platelet accumulation ([3]; high shear): 29.0% | inhibition of platelet accumulation ([3]; low shear): 42.6% | maximal increase of APTT of plasma [4]: too high to be measured | increase in bleeding time over control values (hemostasis; 0.1 mg/kg/min): two-fold | bleeding times (hemostasis; 0.2 mg/kg/min): 3 times control values | bleeding times (hemostasis; 0.002 to 0.04 mg/kg/min): no significant increase in bleeding times | Bleeding Time (hemostasis; dose not given): 5.5 min | fibrin(ogen) deposition (fibrin(ogen) deposition; 0.01 mg/kg/min): completely inhibited fibrin(ogen) deposition | fibrin(ogen) deposition (fibrin(ogen) deposition; 0.04 mg/kg/min): completely inhibited fibrin(ogen) deposition | ED50 ([5]; collagen-coated Gortex): 0.135 mg/kg/min | inhibition of platelet deposition ([5]; collagen-coated Gortex, 0.2 mg/kg/min): 62.9% | ED50 ([5]; collagen-coated silastic tubing): 0.004 mg/kg/min | inhibition of platelet-dependent thrombus formation compared to control ([5]; collagen-coated silastic tubing, 5 nmole/kg/min): 60-70% | inhibition of platelet deposition ([5]; collagen-coated silastic tubing, 0.04 mg/kg/min): completely inhibited platelet deposition | ED50 ([5]; collagen-coated surfaces, applicants' determinations): < 5 nmol/kg/min | ED50 (dosage required to reduce platelet deposition by 50%) ([5]; endarterectomized baboon aorta): 0.002 mg/kg/min | inhibition of platelet deposition ([5]; endarterectomized baboon aorta, 0.002 mg/kg/min, 60 minutes): 53.6% | inhibition of platelet deposition ([5]; endarterectomized baboon aorta, 0.01 mg/kg/min, 60 minutes): 75.5% | hematocrit drop [6]: completely attenuated hematocrit drop | intravascular thrombosis at autopsy [6]: only the control group displayed intravascular thrombosis | morbidity after lethal infusion of E. coli [6]: still resulted in morbidity | peak drop in blood pressure [6]: 60 % of baseline | half-life ([7]; 1 mg/kg i.v. bolus): 14 min | peak APTT ([7]; 1 mg/kg i.v. bolus, 2 minutes after injection): 570 % of control | absorption after subcutaneous administration ([7]; 1 mg/kg subcutaneous): quantitatively adsorbed | clearance half-time ([7]; 1 mg/kg subcutaneous): 340 min | APTT ([7]; 1 mg/kg subcutaneous, 15 minutes): approximately 200 % of control | average half-time for clearance ([7]; after 60 minute i.v. infusion, 0.002-0.2 mg/kg/min): 9.2 ± 3.3 min | thrombin-induced platelet activation [8]: blocks thrombin-induced platelet activation | APTT (% control) (APTT [2]): 300.6 % control | increase in the APTT (APTT [9]; 0.002 mg/kg/min infusion): 200 % increase | APTT response to dose (APTT [9]; 0.002 to 0.2 mg/kg/min i.v.): dose-dependent increase in the APTT | synthesis of PAF by HUVECs [10]: inhibits the synthesis of PAF
